Laboratory results reported in ChEMBL document CHEMBL4610100, “Jatrophane Diterpenoids from Euphorbia esula as Inhibitors of RANKL-Induced Osteoclastogenesis” (J Nat Prod, 2020).

Tested on: BMDM
Experiment: Anti-osteoporosis activity in C57BL/6 mouse bone marrow macrophages assessed as inhibition of M-CSF/GST-tagged recombinant RANKL-induced osteoclast differentiation measured after 5 days by TRAP staining based assay
Type: functional, cell-based
Conditions: C57BL/6, BMDM, 120 h

C=C1[C@H](OC(=O)c2ccccc2)[C@@H](OC(C)=O)[C@@H](OC(=O)c2cccnc2)C(C)(C)/C=C/[C@@H](C)C(=O)[C@@]2(O)C[C@H](C)[C@H](OC(C)=O)[C@@H]2[C@H]1OC(C)=O
IC50: > 10 µM

C=C1[C@H](OC(=O)c2ccccc2)[C@@H](O)[C@@H](OC(=O)c2cccnc2)C(C)(C)/C=C/[C@@H](C)C(=O)[C@@]2(O)C[C@H](C)[C@H](OC(C)=O)[C@@H]2[C@H]1OC(C)=O
IC50: 10 µM
